Entries after “also recorded” stand apart in the source; their conditions may differ.

The source of these data is US12472189B2, “Treatment and prevention of capillary malformation-arteriovenous malformation” (The Regents of University of Michigan, priority 2020, dated 2025).

One data set has as its system HUVEC. Description: RASA1 siRNA knockdown in HUVEC, intracellular collagen IV accumulation (immunofluorescence). The data set is classed as cell-based, human. Conditions: RASA1 siRNA-treated HUVEC, 2 mM 4PBA, 24 hours. As to the method: HUVEC from pooled donors (Lonza, CC-2519) were cultured in EBM™-2 Basal Medium (Lonza, CC-3156) supplemented with EGMm-2 SingleQuots™ Supplement Pack (Lonza, CC-4176). Cells were transfected with 50 nM RASA1 siRNA (5′-[…]-3′ (SEQ ID NO: 1), Invitrogen) using Lipofectamine RNAi MAX (Invitrogen) reagent according to the manufacturer's protocol. Stealth RNAi™ siRNA Negative Control Hi GC (Invitrogen) was used as control. Following transfection, HUVEC were recultured in the presence or absence of 2 mM 4PBA for 24 hours.
HUVECs were fixed with 4% paraformaldehyde in PBS for 30 minutes at room temperature washed in PBS, permeabilized with 0.2% Triton X-100, and blocked with 10% donkey serum for 1 hour. Cells were incubated with antibodies against collagen IV (1340-01, SouthemBiotech) and calnexin (PA5-34754, Thermo Fisher) overnight, followed by Alexa Fluor®488 or 594 conjugated secondary antibodies (Jackson ImmunoResearch) for 4 hours. Cells were stained with Hoechst to identify nuclei before mounting and viewing on a Leica SP5 X confocal microscope.

Another data set concerns human and mouse EC. The note with it: human and mouse EC in vitro; cited from earlier work.
The subject of another data set is B16 melanoma. Description: Tumor angiogenesis, B16 melanoma model in adult induced RASA1-deficient mice. In kind it is in vivo, mouse. Conditions: 13 days. As to the method: TM was administered to mice at 2 months of age (female mice for ID8 experiments and mice of either sex for B16 experiments). After 1 week, mice were injected s.c. in the flank with 1×10^6 ID8 cells or 0.75×10^6 B16F10 cells (provided by Weiping Zou, Michigan Medicine, Ann Arbor Michigan) suspended in 100 μl matrigel (Corning). In B16 experiments, 4PBA was administered to some mice at the same time as tumor and for each day thereafter (0.4 mg/g body weight per injection). ID8 and B16 tumors were harvested 6 weeks or 13 days later respectively and tumor weight and volume was determined as described (Kozak et al. Proc Natl Acad Sci USA. 2010; 107(46):19997-20002; incorporated by reference in its entirety). Tumors were fixed in 4% paraformaldehyde overnight and 5 μm sections were stained with Hoechst and antibodies against CD31, activated caspase 3 and collagen IV as above. Sections were viewed on a BX60 upright fluorescence microscope or a Leica SP5 X confocal microscope. BV density was assessed within a random 800 μm×800 μm region.

The test system of data set [1] is induced RASA1-deficient mice (Rasa1 fl/fl Ub ert2cre embryos). Description: Developmental angiogenesis in embryos with TM-induced disruption of Rasa1, drug co-administered. The note with it: for EC apoptosis (activated caspase 3) / EC export of collagen IV / deposition of collagen IV in vascular BM / blood vascular hemorrhage (and edema): Rasa1 fl/fl Ub ert2cre embryos, TM at E13.5 with drug i.p. to pregnant mice, assessed at E18.5; for vascular development / vascular phenotypes, drug administered alone: Rasa1 fl/fl and Rasa1 fl/fl Ub ert2cre embryos, drug from E13.5 in the absence of TM; for vascular development / vascular phenotypes, drug administered alone / Embryonic vascular phenotypes / Percentage embryos with phenotype (affected/total): harvest E18.5; for Embryonic vascular phenotypes / Percentage embryos with phenotype (affected/total): TM day E13.5 plus drug.
Description: Pregnant mice were given 3 i.p. injections of TM (Sigma; 0.05 mg/g body weight per injection, dissolved in corn oil) on consecutive days. The MEK inhibitor, AZD6244 (Selleckchem; 0.05 mg/g body weight per injection), the PI3K inhibitor, PX-866 (Cayman chemical; 0.015 mg/g body weight per injection), the chemical chaperone, 4PBA (Sigma; 0.25 mg/g body weight per injection), and the 2OG dependent oxygenase inhibitors, EDHB and 2,4PDCA (Sigma; 0.1 mg/g body weight per injection) were injected i.p. into mice at the same time as TM and the day following the last TM injection for AZD6244 and PX-866 or for all subsequent days of gestation until harvest for 4PBA, EDHB and 2,4PDCA. […] Embryos were fixed in 3.75% formaldehyde overnight and embedded in paraffin. Five micrometer sections were dehydrated and antigen retrieval was performed with a Diva de-cloaking kit (Biocare Medical). […] Secondary antibodies used were species-specific anti-immunoglobulin donkey F(ab)2 fragments coupled to Alexa Fluor 488, 594 or 647 (Jackson Immunoresearch) and were incubated with tissues in PBS for 2 hours. Sections were stained with Hoechst (Invitrogen) to identify nuclei before mounting and viewing on a BX60 upright fluorescence microscope (Nikon) or a Leica SP5 X confocal microscope (Leica Microsystems).

The test system of data set [2] is mouse models that express these mutants. The note with it: mouse models expressing point mutant collagen IV variants; cited from earlier work.
[3] abbreviates: TM-treated Rasa1 fl/fl Ub ert2cre recipients, 4PBA daily from tumor injection.
Where [4] appears, read: Rasa1 fl/fl littermates, Ert2Cre driver None.

For the molecule `O=C(O)CCCc1ccccc1` [4PBA, 4-phenylbutyric acid], the “intracellular accumulation of collagen IV after RASA1 knockdown” value in the data set on HUVEC is reported as “rescue”. The “blocked export of misfolded point mutant collagen IV variants” value with human and mouse EC is reported as “rescued”. The “B16 growth, 4PBA administered alone” value in the data set with B16 melanoma (Rasa1 fl/fl and Rasa1 fl/fl Ub ert2cre mice not previously injected with TM, 4PBA daily) is “no influence”. In the data set with B16 melanoma (setting [3]), the “export of collagen IV from BEC and BV angiogenesis in B16 tumors” value is recorded as “normal”; the “growth of B16 cells (tumor weight and volume)” value was “restored”. Further, the B16 growth entry with B16 melanoma (TM-treated Rasa1 fl/fl control mice, 4PBA daily) was “no influence”. Moreover, in data set [1], the “EC apoptosis (activated caspase 3)” value is on record as “completely rescued; also recorded: absence of BEC apoptosis”; the “EC export of collagen IV / deposition of collagen IV in vascular BM” value was “completely rescued; also recorded: normal deposition of collagen IV in vascular BM”; the “blood vascular hemorrhage (and edema)” value is “completely rescued; also recorded: absence of hemorrhage and edema”; the “vascular development / vascular phenotypes, drug administered alone” value was “no influence; also recorded: absence of vascular phenotypes”. In data set [1] (listed as 4-phenylbutyric acid), the “EC apoptosis (activated caspase 3)” value is “rescued” and the “EC export of collagen IV / deposition of collagen IV in vascular BM” value is on record as “rescued”. In data set [1] (setting [4]), the Embryonic vascular phenotypes result is “None” and the “Percentage embryos with phenotype (affected/total)” value is 0 (0/5) Percentage. In data set [1] (Rasa1 fl/fl, Ert2Cre driver Ub), the Embryonic vascular phenotypes result is “None” and the “Percentage embryos with phenotype (affected/total)” value is listed as 0 (0/7) Percentage. Further, the intracerebral hemorrhage entry in data set [2] is “reversed”.

On to `O=C(O)c1ccnc(C(=O)O)c1` [2,4PDCA, 2,4 pyridinedicarboxylic acid], for which, in data set [1], the “EC apoptosis (activated caspase 3)” value was “absence of BEC apoptosis”; the “EC export of collagen IV / deposition of collagen IV in vascular BM” value is “normal deposition of collagen IV in vascular BM”; the “blood vascular hemorrhage (and edema)” value was “absence of hemorrhage and edema”. In addition, in data set [1] (setting [4]), the Embryonic vascular phenotypes result is reported as “None” and the “Percentage embryos with phenotype (affected/total)” value is on record as 0 (0/6) Percentage. Moreover, in data set [1] (Rasa1 fl/fl, Ert2Cre driver Ub), the Embryonic vascular phenotypes entry is “None” and the “Percentage embryos with phenotype (affected/total)” value is on record as 0 (0/3) Percentage.

Take `Cn1cnc2c(F)c(Nc3ccc(Br)cc3Cl)c(C(=O)NOCCO)cc21` [AZD6244]: in data set [1], the “EC export of collagen IV / deposition of collagen IV in vascular BM” value was “rescued; also recorded: normal deposition of collagen IV in vascular BM”; the “blood vascular hemorrhage (and edema)” value is “prevented; also recorded: absence of hemorrhage and edema”; the “vascular development / vascular phenotypes, drug administered alone” value is given as “did not induce any vascular abnormalities; also recorded: absence of vascular phenotypes”. In data set [1] (setting [4]), the Embryonic vascular phenotypes entry is reported as “None” and the “Percentage embryos with phenotype (affected/total)” value was 0 (0/8) Percentage. In data set [1] (Rasa1 fl/fl, Ert2Cre driver Ub), the Embryonic vascular phenotypes result was “None” and the “Percentage embryos with phenotype (affected/total)” value was 0 (0/7) Percentage.

For the molecule `CCOC(=O)c1ccc(O)c(O)c1` [EDHB], in data set [1], the “EC apoptosis (activated caspase 3)” value is “completely rescued; also recorded: absence of BEC apoptosis”; the “EC export of collagen IV / deposition of collagen IV in vascular BM” value is listed as “completely rescued; also recorded: normal deposition of collagen IV in vascular BM”; the “blood vascular hemorrhage (and edema)” value is “completely rescued; also recorded: absence of hemorrhage and edema”. In data set [1] (Rasa1 fl/fl, Ert2Cre driver Ub), the Embryonic vascular phenotypes result was “None” and the “Percentage embryos with phenotype (affected/total)” value was 0 (0/5) Percentage.

For `C=CCN(/C=C1/C(=O)O[C@H](COC)[C@@]2(C)C1=C(O)C(=O)C1=C2[C@H](OC(C)=O)C[C@]2(C)C(=O)CC[C@@H]12)CC=C` [PX-866], in data set [1], the “EC apoptosis (activated caspase 3)” value was “unable to rescue”, the “EC export of collagen IV / deposition of collagen IV in vascular BM” value is “unable to rescue” and the “blood vascular hemorrhage (and edema)” value is listed as “extensive cutaneous hemorrhage was evident”.
